Laboratory results: patent publication US5607707A, “Compositions” (priority 1992, dated 1997)

What was measured:
[1] = Experimental: The colour stability of the compositions according to the present invention were determined using the following simulated shelf and accelerated storage tests.
This is illustrated with data from a study in which combinations of β-carotene, apo-carotenal and ascorbic acid were incorporated in a typical beverage formulation. The products were stored in bright daylight conditions for a period of 30 days and the colour loss at the end of this period was determined by spectrophotometry.

[2] = Water solubility / dissolution; format: physicochemical; settings: primary addition of apo-carotenal, in words
[3] = Effect of temperature on amount of emulsifier required to achieve optical clarity (Example 6); format: physicochemical; settings: for Tween 60 required to achieve optical clarity: 1 g crystalline β-carotene
Experimental: One advantage of the present invention is the wide range of temperatures which can be used in b) above. The temperature developed in mixing in b) is preferably 80°-160° or 180°-200° C. The lower temperatures are particularly useful where more temperature sensitive ingredients are involved. […] Therefore to minimise the amount of emulsifier(s) used, a temperature of not less than 160° C. or preferably 180° C. is preferred. The use of these high temperatures incurs the risk of degradation of pigment unless suitable precautions are taken. For example it is necessary to incorporate an antioxidant in the initial stages of preparation and it is desirable to exclude oxygen by heating the mixture in an atmosphere of nitrogen.
1 g of crystalline β-carotene required the following amounts of Tween 60 at the temperatures stated

Row | SMILES | stabilising effect on colour [1] | effect on dissolution of carotene [2] | Tween 60 required to achieve optical clarity ([3]; 140 °C) | Tween 60 required to achieve optical clarity ([3]; 160 °C) | Tween 60 required to achieve optical clarity ([3]; 180 °C) | Tween 60 required to achieve optical clarity ([3]; 200 °C) | effect of temperature on emulsifier required to achieve optical clarity ([3]; pure β-carotene, in words)
1 | CC(C=O)=CC=CC(C)=CC=CC=C(C)C=CC=C(C)C=CC1=C(C)CCCC1(C)C [apo-carotenal, β-8'-apo-carotenal] | helps to stabilise β-carotene | promoting the dissolution of carotene | – | – | – | – | –
2 | CC1=C(/C=C/C(C)=C/C=C/C(C)=C/C=C/C=C(C)/C=C/C=C(C)/C=C/C2=C(C)CCCC2(C)C)C(C)(C)CCC1 [crystalline β-carotene, β-carotene] | – | – | 10.5 g | 7.5 g | 4.0 g | 3.0 g | an increase in temperature permits a reduction in the amount of emulsifier(s) required
3 | O=C1O[C@H]([C@@H](O)CO)C(O)=C1O [ascorbic acid] | effective in reinforcing the stabilising effect of the antioxidants | – | – | – | – | – | –
